From ChEMBL document CHEMBL4610038, “The synthesis of trifluoromethylated N-nitroaryl-2-amino-1,3-dichloropropane derivatives and their evaluation as potential anti-cancer agents” (Bioorg Med Chem Lett, 2020)

Tests used:
SW48 [1] = assay: Cytotoxicity against human SW48 cells assessed as reduction in cell viability; format: functional, cell-based
MDA-MB-231 [2] = assay: Cytotoxicity against human MDA-MB-231 cells assessed as cell viability at 100 uM relative to control; format: functional; conditions: read-out: Activity
MDA-MB-231 [3] = assay: Cytotoxicity against human MDA-MB-231 cells assessed as reduction in cell viability; format: functional, cell-based
HCT-116 [4] = assay: Cytotoxicity against human HCT116 cells assessed as cell viability at 100 uM relative to control; format: functional; conditions: read-out: Activity
SK-BR-3 [5] = assay: Cytotoxicity against human SKBR3 cells assessed as reduction in cell viability; format: functional, cell-based
SH-SY5Y [6] = assay: Cytotoxicity against human SH-SY5Y cells assessed as cell viability at 100 uM relative to control; format: functional; conditions: read-out: Activity
[7] = Cytotoxicity against human HK1 cells assessed as reduction in cell viability; format: functional, cell-based; conditions: HK-1
NCI-H1299 [8] = assay: Cytotoxicity against human H1299 cells assessed as cell viability at 100 uM relative to control; format: functional; conditions: read-out: Activity
HCT-116 [9] = assay: Cytotoxicity against human HCT116 cells assessed as reduction in cell viability; format: functional, cell-based
SUNE1 [10] = assay: Cytotoxicity against human SUNE1 cells assessed as reduction in cell viability; format: functional, cell-based
MDA-MB-468 [11] = assay: Cytotoxicity against human MDA-MB-468 cells assessed as reduction in cell viability; format: functional, cell-based
A549 [12] = assay: Cytotoxicity against human A549 cells assessed as cell viability at 100 uM relative to control; format: functional; conditions: read-out: Activity
MRC5 = assay: Cytotoxicity against human MRC5 cells assessed as reduction in cell viability; format: cell-based
[13] = Cytotoxicity against human MRC5 cells assessed as cell viability at 100 uM relative to control; format: cell-based; conditions: read-out: Activity
ASPC1 [14] = assay: Cytotoxicity against human AsPC1 cells assessed as cell viability at 100 uM relative to control; format: functional; conditions: read-out: Activity
SK-BR-3 [15] = assay: Cytotoxicity against human SKBR3 cells assessed as cell viability at 100 uM relative to control; format: functional; conditions: read-out: Activity
MDA-MB-468 [16] = assay: Cytotoxicity against human MDA-MB-468 cells assessed as cell viability at 100 uM relative to control; format: functional; conditions: read-out: Activity
[17] = Cytotoxicity against human HK1 cells assessed as cell viability at 100 uM relative to control; format: functional; conditions: HK-1, read-out: Activity
HT-29 [18] = assay: Cytotoxicity against human HT-29 cells assessed as reduction in cell viability; format: functional, cell-based
SW1990 [19] = assay: Cytotoxicity against human SW1990 cells assessed as cell viability at 100 uM relative to control; format: functional; conditions: read-out: Activity
SH-SY5Y [20] = assay: Cytotoxicity against human SH-SY5Y cells assessed as reduction in cell viability; format: functional, cell-based
A549 [21] = assay: Cytotoxicity against human A549 cells assessed as reduction in cell viability; format: functional, cell-based
[22] = Cytotoxicity against human MCF10A cells assessed as cell viability at 100 uM relative to control; format: cell-based, MCF-10A; conditions: read-out: Activity
ASPC1 [23] = assay: Cytotoxicity against human AsPC1 cells assessed as reduction in cell viability; format: functional, cell-based
SW48 [24] = assay: Cytotoxicity against human SW48 cells assessed as cell viability at 100 uM relative to control; format: functional; conditions: read-out: Activity
BXPC-3 [25] = assay: Cytotoxicity against human BxPC3 cells assessed as cell viability at 100 uM relative to control; format: functional; conditions: read-out: Activity
NCI-H1299 [26] = assay: Cytotoxicity against human H1299 cells assessed as reduction in cell viability; format: functional, cell-based
MCF7 [27] = assay: Cytotoxicity against human MCF7 cells assessed as reduction in cell viability; format: functional, cell-based
T47D [28] = assay: Cytotoxicity against human T47D cells assessed as reduction in cell viability; format: functional, cell-based
SW1990 [29] = assay: Cytotoxicity against human SW1990 cells assessed as reduction in cell viability; format: functional, cell-based
Caco-2 [30] = assay: Cytotoxicity against human Caco2 cells assessed as cell viability at 100 uM relative to control; format: functional; conditions: read-out: Activity
CNE [31] = assay: Cytotoxicity against human CNE1 cells assessed as reduction in cell viability; format: functional, cell-based
HT-29 [32] = assay: Cytotoxicity against human HT-29 cells assessed as cell viability at 100 uM relative to control; format: functional; conditions: read-out: Activity
BXPC-3 [33] = assay: Cytotoxicity against human BxPC3 cells assessed as reduction in cell viability; format: functional, cell-based
CNE [34] = assay: Cytotoxicity against human CNE1 cells assessed as cell viability at 100 uM relative to control; format: functional; conditions: read-out: Activity
T47D [35] = assay: Cytotoxicity against human T47D cells assessed as cell viability at 100 uM relative to control; format: functional; conditions: read-out: Activity
MCF7 [36] = assay: Cytotoxicity against human MCF7 cells assessed as cell viability at 100 uM relative to control; format: functional; conditions: read-out: Activity
MCF-10A = assay: Cytotoxicity against human MCF10A cells assessed as reduction in cell viability; format: cell-based
Caco-2 [37] = assay: Cytotoxicity against human Caco2 cells assessed as reduction in cell viability; format: functional, cell-based
SUNE1 [38] = assay: Cytotoxicity against human SUNE1 cells assessed as cell viability at 100 uM relative to control; format: functional; conditions: read-out: Activity

Compound | IC50 (SW48 [1]) [µM] | viability at 100 µM (MDA-MB-231 [2]) [%] | IC50 (MDA-MB-231 [3]) [µM] | viability at 100 µM (HCT-116 [4]) [%] | IC50 (SK-BR-3 [5]) [µM] | viability at 100 µM (SH-SY5Y [6]) [%] | IC50 [7] [µM] | viability at 100 µM (NCI-H1299 [8]) [%] | IC50 (HCT-116 [9]) [µM] | IC50 (SUNE1 [10]) [µM] | IC50 (MDA-MB-468 [11]) [µM] | viability at 100 µM (A549 [12]) [%] | IC50 (MRC5) [µM] | viability at 100 µM [13] [%] | viability at 100 µM (ASPC1 [14]) [%] | viability at 100 µM (SK-BR-3 [15]) [%] | viability at 100 µM (MDA-MB-468 [16]) [%] | viability at 100 µM [17] [%] | IC50 (HT-29 [18]) [µM] | viability at 100 µM (SW1990 [19]) [%] | other results
O=[N+]([O-])c1ccc(NC(CO)CO)cc1 | > 100 | 87.7 | > 100 | 89.7 | > 100 | 99.9 | > 100 | 92.7 | > 100 | > 100 | > 100 | 96.7 | 60.2 | 32.2 | 96.4 | 93.1 | 102 | 99.6 | > 100 | 87.5 | IC50 (SH-SY5Y [20]): > 100 µM; IC50 (A549 [21]): > 100 µM; viability at 100 µM [22]: 103%; IC50 (ASPC1 [23]): > 100 µM; viability at 100 µM (SW48 [24]): 95.3%; viability at 100 µM (BXPC-3 [25]): 100%; IC50 (NCI-H1299 [26]): > 100 µM; IC50 (MCF7 [27]): > 100 µM; IC50 (T47D [28]): > 100 µM; IC50 (SW1990 [29]): > 100 µM; viability at 100 µM (Caco-2 [30]): 101%; IC50 (CNE [31]): > 100 µM; viability at 100 µM (HT-29 [32]): 96.3%; IC50 (BXPC-3 [33]): > 100 µM; viability at 100 µM (CNE [34]): 104%; viability at 100 µM (T47D [35]): 73.6%; viability at 100 µM (MCF7 [36]): 65.6%; IC50 (MCF-10A): > 100 µM; IC50 (Caco-2 [37]): > 100 µM; viability at 100 µM (SUNE1 [38]): 109%
O=[N+]([O-])c1ccccc1NC(CO)CO | > 100 | 91.8 | > 100 | 76.9 | > 100 | 89.7 | > 100 | 96.7 | > 100 | > 100 | > 100 | 74.9 | > 100 | 101 | 101 | 101 | 104 | 90.1 | > 100 | 91.9 | IC50 (SH-SY5Y [20]): > 100 µM; IC50 (A549 [21]): > 100 µM; viability at 100 µM [22]: 100%; IC50 (ASPC1 [23]): > 100 µM; viability at 100 µM (SW48 [24]): 102%; viability at 100 µM (BXPC-3 [25]): 102%; IC50 (NCI-H1299 [26]): > 100 µM; IC50 (MCF7 [27]): > 100 µM; IC50 (T47D [28]): > 100 µM; IC50 (SW1990 [29]): > 100 µM; viability at 100 µM (Caco-2 [30]): 95.1%; IC50 (CNE [31]): > 100 µM; viability at 100 µM (HT-29 [32]): 86.1%; IC50 (BXPC-3 [33]): > 100 µM; viability at 100 µM (CNE [34]): 102%; viability at 100 µM (T47D [35]): 76.2%; viability at 100 µM (MCF7 [36]): 66.6%; IC50 (MCF-10A): > 100 µM; IC50 (Caco-2 [37]): > 100 µM; viability at 100 µM (SUNE1 [38]): 99.3%
O=[N+]([O-])c1ccccc1NC(CCl)CCl | > 100 | 85.1 | > 100 | 64.9 | > 100 | 60.8 | > 100 | 109 | > 100 | > 100 | > 100 | 82.9 | > 100 | 54.8 | 75.2 | 79.9 | 63.6 | 101 | > 100 | 64.4 | IC50 (SH-SY5Y [20]): > 100 µM; IC50 (A549 [21]): > 100 µM; viability at 100 µM [22]: 88.7%; IC50 (ASPC1 [23]): > 100 µM; viability at 100 µM (SW48 [24]): 62.6%; viability at 100 µM (BXPC-3 [25]): 105%; IC50 (NCI-H1299 [26]): > 100 µM; IC50 (MCF7 [27]): 50.9 µM; IC50 (T47D [28]): > 100 µM; IC50 (SW1990 [29]): > 100 µM; viability at 100 µM (Caco-2 [30]): 104%; IC50 (CNE [31]): > 100 µM; viability at 100 µM (HT-29 [32]): 65.3%; IC50 (BXPC-3 [33]): > 100 µM; viability at 100 µM (CNE [34]): 72.5%; viability at 100 µM (T47D [35]): 69.8%; viability at 100 µM (MCF7 [36]): 37.7%; IC50 (MCF-10A): > 100 µM; IC50 (Caco-2 [37]): > 100 µM; viability at 100 µM (SUNE1 [38]): 80.5%
